Data published in ChEMBL document CHEMBL5143608, “Peptide-based long-acting co-agonists of GLP-1 and cholecystokinin 1 receptors as novel anti-diabesity agents” (Eur J Med Chem, 2022).
Active and inactive are the calls of the source. The rule behind the calls is not given here.

Assays:
Mus musculus [1] = test: Anti-diabesity activity in DIO C57BL/6 mouse assessed as reduction in body weight at 100 nmol/kg, sc administered once daily for 7 days; type: functional; details: C57BL/6, 168 h, time 7 day
Mus musculus [2] = test: Anti-diabesity activity against db/db mouse assessed as improvement in glucose tolerance level at 25 nmol/kg, sc administered every 2 days for 6 weeks followed by saline treatment for 6 weeks and measured during first 6 weeks by OGTT; type: functional, organism-based
[3] = Renal toxicity in db/db mouse assessed as blood urea nitrogen level at 100 nmol/kg, sc administered once daily for 7 days; type: organism-based; details: in vivo, 168 h, time 7 day
Mus musculus [4] = test: Anti-diabesity activity in DIO C57BL/6 mouse assessed as improvement in insulin sensitivity at 25 nmol/kg, sc administered every 2 days for 10 days by insulin tolerance test; type: functional, organism-based; details: time 10.0 day
Mus musculus [5] = test: Anti-diabesity activity against DIO C57BL/6 mouse assessed as increase in adiponectin level in plasma at 25 nmol/kg, sc administered every 2 days for 3 weeks by ELISA; type: functional, organism-based; details: time 21.0 day
Mus musculus [6] = test: Anti-diabesity activity in DIO C57BL/6 mouse assessed as decrease in fasted blood glucose level at 100 nmol/kg, sc administered once daily for 7 days; type: functional, organism-based; details: time 7.0 day
Mus musculus [7] = test: Anti-diabesity activity in db/db mouse assessed as decrease in cumulative food intake at 100 nmol/kg, sc administered once daily for 7 days; type: functional, organism-based; details: time 7.0 day
[8] = Pancreatic insult activity in db/db mouse assessed as increase in amylase level in serum at 25 nmol/kg, sc administered every 2 days for 12 weeks; type: toxicity, organism-based; details: in vivo, 2016 h
Mus musculus [9] = test: Anti-diabesity activity against db/db mouse assessed as reduction in fasting blood glucose level at 25 nmol/kg, sc administered every 2 days for 12 weeks; type: functional, organism-based
Mus musculus [10] = test: Anti-diabesity activity against DIO C57BL/6 mouse assessed as reduction in triglycerides level in serum at 25 nmol/kg, sc administered every 2 days for 3 weeks; type: functional, organism-based; details: time 21.0 day
[11] = Pancreatic insult activity in DIO C57BL/6 mouse assessed as lipase level in serum at 25 nmol/kg, sc administered every 2 days for 3 weeks; type: toxicity, organism-based; details: in vivo, 504 h, time 21 day
[12] = Pancreatic insult activity in db/db mouse assessed as increase in lipase level in serum at 25 nmol/kg, sc administered every 2 days for 12 weeks; type: toxicity, organism-based; details: in vivo, 2016 h
[13] = Renal toxicity in DIO C57BL/6 mouse assessed as blood urea nitrogen level at 100 nmol/kg, sc administered once daily for 7 days; type: organism-based; details: in vivo, 168 h, time 7 day
[14] = Hepatotoxicity in db/db mouse assessed as aspartate aminotransferase level in plasma at 100 nmol/kg, sc administered once daily for 7 days; type: toxicity, organism-based; details: in vivo, 168 h, time 7 day
Mus musculus [15] = test: Anti-diabesity activity against DIO C57BL/6 mouse assessed as increase in insulin sensitivity by measuring reduction in circulating insulin levels at 25 nmol/kg, sc administered every 2 days for 3 weeks by ELISA; type: functional, organism-based; details: time 21.0 day
Mus musculus [16] = test: Anti-diabesity activity in DIO C57BL/6 mouse assessed as reduction in cumulative food intake at 100 nmol/kg, sc administered once daily for 7 days; type: functional, organism-based; details: time 7.0 day
Mus musculus [17] = test: Anti-diabesity activity against db/db mouse assessed as improvement in glucose tolerance level at 25 nmol/kg, sc administered every 2 days for 6 weeks followed by saline treatment for 6 weeks and measured during second 6 weeks by OGTT; type: functional, organism-based
Mus musculus [18] = test: Anti-diabesity activity against db/db mouse assessed as increase in IOD of insulin in pancreas at 25 nmol/kg, sc administered every 2 days for 12 weeks by immunohistochemistry; type: functional, organism-based
Mus musculus [19] = test: Anti-diabesity activity in DIO C57BL/6 mouse assessed as reduction in body weight at 25 nmol/kg, sc administered every 2 days for 10 days; type: functional; details: C57BL/6, 240 h, time 10 day
Mus musculus [20] = test: Anti-diabesity activity against db/db mouse assessed as reduction in HbA1c level at 25 nmol/kg, sc administered every 2 days and measured on day 43; type: functional, organism-based; details: time 43.0 day
[21] = Hepatotoxicity in DIO C57BL/6 mouse assessed as alanine aminotransferase level in serum at 25 nmol/kg, sc administered every 2 days for 3 weeks; type: toxicity, organism-based; details: in vivo, 504 h, time 21 day
Mus musculus [22] = test: Anti-diabesity activity against db/db mouse assessed as increase in islet area at 25 nmol/kg, sc administered every 2 days for 3 weeks by H and E staining based analysis; type: functional, organism-based; details: time 21.0 day
Mus musculus [23] = test: Anti-diabesity activity against db/db mouse assessed as HbA1c level at 25 nmol/kg, sc administered every 2 days for 3 weeks; type: functional, organism-based; details: time 21.0 day
[24] = Hepatotoxicity in DIO C57BL/6 mouse assessed as alanine aminotransferase level in plasma at 100 nmol/kg, sc administered once daily for 7 days; type: toxicity, organism-based; details: in vivo, 168 h, time 7 day
[25] = Hepatotoxicity in db/db mouse assessed as aspartate aminotransferase level in plasma at 25 nmol/kg, sc administered every 2 days for 12 weeks; type: toxicity, organism-based; details: in vivo, 2016 h
[26] = Cmax in Sprague-Dawley rat at 25 nmol/kg, iv by LC-MS/MS analysis; type: ADME, organism-based; parameters: dose 25 nmol/kg, route iv; details: in vivo
[27] = Cmax in Sprague-Dawley rat at 25 nmol/kg, sc by LC-MS/MS analysis; type: ADME, organism-based; parameters: dose 25 nmol/kg, route sc; details: in vivo
Mus musculus [28] = test: Anti-diabesity activity against db/db mouse assessed as improvement in glucose tolerance at 25 nmol/kg, sc administered every 2 days for 3 weeks by OGTT; type: functional, organism-based; details: time 21.0 day
[29] = AUC (0 to infinity) in Sprague-Dawley rat at 25 nmol/kg, sc by LC-MS/MS analysis; type: ADME, organism-based; parameters: time infinity, dose 25 nmol/kg, route sc; details: in vivo
[30] = Pancreatic insult activity in DIO C57BL/6 mouse assessed as increase in lipase level in plasma at 100 nmol/kg, sc administered once daily for 7 days; type: toxicity, organism-based; details: in vivo, 168 h, time 7 day
[31] = Pancreatic insult activity in DIO C57BL/6 mouse assessed as increase in amylase level in plasma at 100 nmol/kg, sc administered once daily for 7 days; type: toxicity, organism-based; details: in vivo, 168 h, time 7 day
[32] = AUC (0 to infinity) in Sprague-Dawley rat at 25 nmol/kg, iv by LC-MS/MS analysis; type: ADME, organism-based; parameters: time infinity, dose 25 nmol/kg, route iv; details: in vivo
Mus musculus [33] = test: Anti-diabesity activity against DIO C57BL/6 mouse assessed as reduction in fasted blood glucose level at 25 nmol/kg, sc administered every 2 days for 3 weeks; type: functional, organism-based; details: time 21.0 day
Mus musculus [34] = test: Hypoglycemic activity in db/db mouse assessed as reduction in glucose excursion at 25 nmol/kg, ip administered 30 min before oral glucose administration and measured upto 120 mins by OGTT; type: functional, organism-based
Mus musculus [35] = test: Anorectic activity in ICR mouse assessed as decrease in food intake at 25 nmol/kg, ip and measured after 9 hrs; type: functional, organism-based
Mus musculus [36] = test: Anti-diabesity activity in db/db mouse assessed as improvement in glucose tolerance at 25 nmol/kg, ip pretreated for 15 mins with CCK-1R antagonist, Lorglumide followed by compound administration and 15 mins later treated with oral glucose and measured upto 120 mins by OGTT; type: functional, organism-based; details: time 135.0 min
[37] = Toxicity in Sprague-Dawley rat assessed as induction of Pica behaviour by measuring kaolin intake at 25 nmol/kg, ip measured after 24 hrs; type: organism-based; details: in vivo
Mus musculus [38] = test: Anti-diabesity activity against db/db mouse assessed as increase in pancreas mass at 25 nmol/kg, sc administered every 2 days for 12 weeks; type: functional, organism-based
Mus musculus [39] = test: Anti-diabesity activity against db/db mouse assessed as reduction in cumulative food intake at 25 nmol/kg, sc administered every 2 days for 3 weeks; type: functional, organism-based; details: time 21.0 day

SMILES | inhibition in vivo at 0.1 µmol/kg (Mus musculus [1]) | Activity (Mus musculus [2]) | Activity [3] | Activity (Mus musculus [4]) | Activity (Mus musculus [5]) | Activity (Mus musculus [6]) | Activity (Mus musculus [7]) | Activity [8] | Activity (Mus musculus [9]) | Activity (Mus musculus [10]) | Activity [11] | Activity [12] | Activity [13] | Activity [14] | Activity (Mus musculus [15]) | Activity (Mus musculus [16]) | Activity (Mus musculus [17]) | Activity (Mus musculus [18]) | inhibition in vivo at 0.025 µmol/kg (Mus musculus [19]) | Activity (Mus musculus [20]) | also measured
CCCC[C@H](NC(=O)[C@H](Cc1ccc(CS(=O)(=O)O)cc1)NC(=O)[C@H](CC(=O)O)NC(=O)COCCOCCNC(=O)COCCOCCNC(=O)[C@H](CCCNC(=N)N)NC(=O)CNC(=O)[C@H](CCCCN)NC(=O)[C@@H](NC(=O)[C@H](CC(C)C)NC(=O)[C@H](Cc1c[nH]c2ccccc12)NC(=O)[C@H](C)NC(=O)[C@@H](NC(=O)[C@H](Cc1ccccc1)NC(=O)[C@H](CCC(=O)O)NC(=O)[C@H](CCCCNC(=O)COCCOCCNC(=O)COCCOCCNC(=O)CC[C@H](NC(=O)CCCCCCCCCCCCCCCCC(=O)O)C(=O)O)NC(=O)[C@H](C)NC(=O)[C@H](C)NC(=O)[C@H](CCC(N)=O)NC(=O)CNC(=O)[C@H](CCC(=O)O)NC(=O)[C@H](CC(C)C)NC(=O)[C@H](Cc1ccc(O)cc1)NC(=O)[C@H](CO)NC(=O)[C@H](CO)NC(=O)[C@@H](NC(=O)[C@H](CC(=O)O)NC(=O)[C@H](CO)NC(=O)[C@@H](NC(=O)[C@H](Cc1ccccc1)NC(=O)[C@@H](NC(=O)CNC(=O)[C@H](CCC(=O)O)NC(=O)[C@H](C)NC(=O)[C@@H](N)Cc1cnc[nH]1)[C@@H](C)O)[C@@H](C)O)C(C)C)[C@@H](C)CC)C(C)C)C(=O)NCC(=O)N[C@@H](Cc1c[nH]c2ccccc12)C(=O)N[C@@H](CCCC)C(=O)N(C)[C@H](CC(=O)O)C(=O)N(C)[C@@H](Cc1ccccc1)C(N)=O | 19.2% | Active | Non-Toxic | Active | Active | Active | Active | Toxic | Active | Active | Non-Toxic | Toxic | Non-Toxic | Non-Toxic | Active | Active | Active | Active | 17.9% | Active | Activity [21]: Non-Toxic; Activity (Mus musculus [22]): Active; Activity (Mus musculus [23]): Active; Activity [24]: Non-Toxic; Activity [25]: Non-Toxic; Cmax [26]: 1680 ng/mL; Cmax [27]: 341 ng/mL; Activity (Mus musculus [28]): Active; AUC(0-inf) [29]: 5510 ng·h/mL; Activity [30]: Non-Toxic; Activity [31]: Non-Toxic; AUC(0-inf) [32]: 6050 ng·h/mL; Activity (Mus musculus [33]): Active; Activity (Mus musculus [34]): Active; Activity (Mus musculus [35]): Active; Activity (Mus musculus [36]): Active; Activity [37]: Non-Toxic; Activity (Mus musculus [38]): Active; Activity (Mus musculus [39]): Active
CCCC[C@H](NC(=O)[C@H](Cc1ccc(CS(=O)(=O)O)cc1)NC(=O)[C@H](CC(=O)O)NC(=O)COCCOCCNC(=O)COCCOCCNC(=O)[C@H](CCCCN)NC(=O)CNC(=O)[C@H](CCCCN)NC(=O)[C@@H](NC(=O)[C@H](CC(C)C)NC(=O)[C@H](Cc1c[nH]c2ccccc12)NC(=O)[C@H](CCC(=O)O)NC(=O)[C@@H](NC(=O)[C@H](Cc1ccccc1)NC(=O)[C@H](CCC(=O)O)NC(=O)[C@H](CCCCNC(=O)COCCOCCNC(=O)COCCOCCNC(=O)CC[C@H](NC(=O)CCCCCCCCCCCCCCCCC(=O)O)C(=O)O)NC(=O)[C@H](C)NC(=O)[C@H](C)NC(=O)[C@H](CCC(=O)O)NC(=O)[C@H](CCC(=O)O)NC(=O)[C@H](CCC(=O)O)NC(=O)[C@H](CC(C)C)NC(=O)[C@@H](NC(=O)[C@H](CCC(=O)O)NC(=O)[C@@H](NC(=O)[C@@H](NC(=O)[C@H](CC(=O)O)NC(=O)[C@H](CC(N)=O)NC(=O)[C@@H](NC(=O)[C@H](Cc1ccc(O)cc1)NC(=O)[C@@H](NC(=O)CNC(=O)[C@H](CCC(=O)O)NC(=O)C(C)(C)NC(=O)[C@@H](N)Cc1cnc[nH]1)[C@@H](C)O)[C@@H](C)O)C(C)C)[C@@H](C)O)[C@@H](C)O)[C@@H](C)CC)[C@@H](C)CC)C(=O)NCC(=O)N[C@@H](Cc1c[nH]c2ccccc12)C(=O)N[C@@H](CCCC)C(=O)N(C)[C@H](CC(=O)O)C(=O)N(C)[C@@H](Cc1ccccc1)C(N)=O | 21.4% | Active | Non-Toxic | Active | Active | Active | Active | Toxic | Active | Active | Non-Toxic | Toxic | Non-Toxic | Non-Toxic | Active | Active | Active | Active | 21.2% | Active | Activity [21]: Non-Toxic; Activity (Mus musculus [22]): Active; Activity (Mus musculus [23]): Active; Activity [24]: Non-Toxic; Activity [25]: Non-Toxic; Cmax [26]: 1660 ng/mL; Cmax [27]: 461 ng/mL; Activity (Mus musculus [28]): Active; AUC(0-inf) [29]: 15200 ng·h/mL; Activity [30]: Non-Toxic; Activity [31]: Non-Toxic; AUC(0-inf) [32]: 17600 ng·h/mL; Activity (Mus musculus [33]): Active; Activity (Mus musculus [34]): Active; Activity (Mus musculus [35]): Active; Activity (Mus musculus [36]): Active; Activity [37]: Non-Toxic; Activity (Mus musculus [38]): Active; Activity (Mus musculus [39]): Active
